Laboratory results: patent publication US20260358340A1, “MATRIX METALLOPROTEINASE 13 SENSITIVE PEPTIDES AND SENSORS” (Julius-Maximilians-Universitaet Wuerzburg, priority 2023, published 2026)

How the values were obtained:
Format in all cases: biochemical
Settings in all cases: role: inhibitor; substrate FRET peptide
MMP13 = MMP13 (Homo sapiens, UniProt P45452); test: FRET peptide cleavage assay, MMP13 activity and its inhibition
Source text: (§1) A possible application of the peptides is the analysis of protease activity and the effect of substances on it. This can be utilized for understanding the role of proteases in physiological and pathological processes as well as for targeting proteases for disease diagnosis or treatment. […] 7-Methoxycoumain-4-acetic acid (Mca) is a is a fluorescent dye with an excitation peak at 322 nm and an emission peak at 381 nm. The absorbance spectrum of 2,4-dinitrophenyl (Dnp) overlaps with the emission spectrum of Mca, therefore it acts as a quencher. As long as both are in close proximity (up to about 5-10 nm), excitation of Mca leads to energy transfer to Dnp. Separation of the fluorophore-quencher pair by hydrolysis of the protease-specific cleavage site between both compounds liberates the fluorescence signal and the rise in its intensity can easily be monitored overtime.

MMP9 = MMP9 (Homo sapiens, UniProt P14780); test: FRET peptide cleavage assay, MMP9 activity and its inhibition
Sequence of MMP9 (P14780 94-707): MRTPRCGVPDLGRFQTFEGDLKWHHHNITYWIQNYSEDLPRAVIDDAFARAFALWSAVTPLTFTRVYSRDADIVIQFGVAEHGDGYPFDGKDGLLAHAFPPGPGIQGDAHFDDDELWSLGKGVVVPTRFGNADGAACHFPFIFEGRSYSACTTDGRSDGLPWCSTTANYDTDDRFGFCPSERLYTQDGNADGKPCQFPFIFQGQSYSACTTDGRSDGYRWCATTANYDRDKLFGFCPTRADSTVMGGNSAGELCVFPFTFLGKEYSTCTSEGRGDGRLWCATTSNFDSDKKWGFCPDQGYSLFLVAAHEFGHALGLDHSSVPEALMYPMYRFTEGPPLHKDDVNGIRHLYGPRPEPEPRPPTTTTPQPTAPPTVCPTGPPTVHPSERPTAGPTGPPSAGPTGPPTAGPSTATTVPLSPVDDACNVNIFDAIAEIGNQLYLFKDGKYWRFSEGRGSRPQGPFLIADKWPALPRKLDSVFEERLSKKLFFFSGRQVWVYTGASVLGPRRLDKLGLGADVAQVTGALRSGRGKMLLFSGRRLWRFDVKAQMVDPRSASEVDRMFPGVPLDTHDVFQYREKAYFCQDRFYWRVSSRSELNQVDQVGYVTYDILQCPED
Source text: as §1, with “overtime. This method is sensitive and time efficient. It allows quantitative assessment of enzymatic activity and the developed fluorogenic substrates are suitable for high throughput screening, for example of protease inhibitors.” for “overtime.”

MMP8 = MMP8 (Homo sapiens, UniProt P22894); test: FRET peptide cleavage assay, MMP8 activity and its inhibition
Sequence of MMP8 (P22894 101-467): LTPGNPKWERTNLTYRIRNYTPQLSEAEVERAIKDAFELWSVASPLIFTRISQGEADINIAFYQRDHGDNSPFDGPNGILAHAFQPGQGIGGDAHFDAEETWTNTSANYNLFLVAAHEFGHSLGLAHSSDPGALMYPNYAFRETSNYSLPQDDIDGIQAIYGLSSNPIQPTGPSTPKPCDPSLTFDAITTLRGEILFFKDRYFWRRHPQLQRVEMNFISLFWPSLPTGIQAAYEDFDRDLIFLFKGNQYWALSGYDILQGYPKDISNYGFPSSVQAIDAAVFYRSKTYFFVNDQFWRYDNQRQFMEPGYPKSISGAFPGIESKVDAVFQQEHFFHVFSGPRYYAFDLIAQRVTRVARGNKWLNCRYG
Source text: as §1, with “overtime. This method is sensitive and time efficient. It allows quantitative assessment of enzymatic activity and the developed fluorogenic substrates are suitable for high throughput screening, for example of protease inhibitors.” for “overtime.”

loss of MMP13 activity (MMP13)	loss of MMP9 activity (MMP9)	loss of MMP8 activity (MMP8)	Structure (SMILES)
complete loss	complete loss	complete loss	CCCCCCCCCCCCOS(=O)(=O)[O-].[Na+] [SDS]
	complete loss	complete loss	CNC(=O)[C@@H](NC(=O)[C@H](CC(C)C)[C@H](O)C(=O)NO)C(C)(C)C [Marimastat]
complete loss	complete loss	complete loss	O=C(O)CN(CCN(CC(=O)O)CC(=O)O)CC(=O)O [EDTA]
